From patent publication US9381182B2, “Anthranilic acid derivatives: novel inhibitors of advanced glycation end-products (AGEs) formation” (priority 2013, dated 2016) come the findings set out here.

For orientation: IC50 means the concentration that inhibits the measured activity by half.

Series [1] concerns the target T1, Human serum albumin (HSA) glycation by fructose (AGE-HSA) (Homo sapiens, UniProt P02768).
T1 construct: purchased Sigma Aldrich, St. Louis, Mo., USA
Kind of series: In-vitro antiglycation activity against HSA glycation (fluorescence-based antiglycation assay). The format is biochemical. The procedure:
Methodology: Human serum albumin (HSA) free from essential fatty acids and rutin were obtained from Sigma Aldrich, St. Louis, Mo., USA. D-fructose, sodium azide (NaN3) and dimethyl sulfoxide (DMSO) were acquired from Merck, Darmstadt, Germany. All solutions were prepared in sterile environment in deionized water at room temperature.
Assay Method: The assay was performed according the protocol of (Sattarahmady N, et al., 2007) with a little modification. […] Each sample solution (200 μL, final reaction volume) in triplicate loaded a 96-wll black fluorescence plate and was incubated for a week at 37° C. in an incubator.

Series [2] is described as follows: MTT-based cytotoxicity assay. To be noted: mouse, 3T3 mouse fibroblast cells, 3T3 cell-line, read-out: Cytotoxicity % Inhibition. From the text: Many studies have highlighted the contribution of AGEs in disease states and primarily investigated their deleterious effects and their possible mechanism of actions. Therefore, there is a need of synthesis and investigation of novel antiglycation agents, which are devoid of any adverse effects, may present a therapeutic approach for the delaying and treatment of premature aging and vascular abnormalities in diabetic patients. In the current study, we explored the novel antiglycation agents (1-18), which are potent inhibitors against the glycation process, and belong to anthranilic acid derivatives. The inhibitors were identified by using high throughput screening method, fluorescence-based antiglycation assay (see Table-1). The cytotoxicity studies were performed against mouse fibroblast cell-line (3T3 Cell-line) by employing MTT-based cytotoxicity assay. The mechanistic studies were also conducted to evaluate the effect of novel antiglycation inhibitors on AGEs-induced intracellular reactive oxygen species generation (ROS) and associated impaired proliferation in rat hepatocytes via dichlorofluorescin diacetate (DCFH-DA) and MTT-based cytotoxicity assay, respectively. Previously, these novel antiglycation inhibitors were known for anticancer and anti-inflammatory activities (Congiu C, et al., 2005).

In series [3] the test system is rat hepatocytes (CC1-Cell line). Description: Fructose-derived AGE-mediated intracellular ROS generation, DCFH-DA technique. It counts as cell-based. The protocol:
Methodology: DCFH-DA (Dichlorofluorescin diacetate), H2O2 (Hydrogen peroxide), DMSO (Dimethyl sulfoxide) and PBS (Phosphate buffer saline) were obtained from Sigma, St. Louis, Mo., USA. 96-well black fluorescence plates (Tissue culture treated) were purchased from Thermo Fisher Scientific, Waltham, Mass., USA.
Assay Method: Briefly, rat hepatocytes (CC1-Cell line, 6×10^4 cells/mL) were loaded on a black fluorescence 96-well tissue culture treated plate for 24 hours at 37° C. in an incubator, containing 5% CO2. The cells were serum starved for another 24 hours by adding serum free medium-MEM (minimum essential medium) prior to treatment with fructose-derived AGE and the test compounds, anthranilic acid derivatives. Initially the cells were treated with non fluorescent probe, DCFH-DA (10 μM) in the dark for 45 mins. Following incubation the cells were washed twice with 1×PBS and were treated with different concentrations of the AGEs, such as 0, 50, 100, and 200 μg/mL, to evaluate the AGEs influence on the generation of intracellular ROS in a concentration dependent manner. The cells were then treated with the test compounds (novel anthranilic acid derivatives) at various concentrations 24, 33, and 49 μM, co-incubated with the AGE (200 μg/mL) for 24 hours at 37° C. At the end of the incubation, just before 1 hour, the cells were incubated with H2O2 (0.5%) as a control.
Fluorescence Detection: The intensity of green fluorescence, which is emitted upon the oxidation of the probe in the presence of intracellular ROS, is measured at the excitation and emission wavelength of 490 nm and 520 nm, respectively, by Spectra Max Spectrophotometer, Applied Biosystems, CA, USA.
Where, • Test compound=anthranilic acid derivative • Blank=Untreated normal rat hepatocytes • Control=Hepatocytes treated with 0.5% H2O2

Series [4] has the same test system. Kind of series: AGE-mediated reduced growth of rat hepatocytes, MTT assay. It counts as cell-based. To be noted: for Absorbance (Average): 540 nm. The source says: Methodology: Normal, rat hepatocytes (CC1-Cell line) was purchased from ATCC, Manassas, Va., USA. MEM (Minimum Essential Medium) with L-glutamine, trypsin-EDTA, sodium bicarbonate and penicillin-streptomycin were obtained from Sigma, St. Louis, Mo., USA. 96-well tissue culture treated, sterile, round bottom plates were acquired from Thermo Fisher Scientific, Waltham, Mass., USA.
All the treatment with the AGEs and the test compound were done in SFM (serum free medium), and Triton X-100 treated hepatocytes were used as a blank, while untreated normal cells were used as a control.
Determination of Cellular Proliferation: At the end of the incubation, the sample solution was removed and MTT-dye ((2 mg/mL, 50 μL) was added to each well. The final reaction volume (200 μL) was reconstituted by MEM (serum free-Minimum essential media). The plate was incubated for 4 hours at 37° C. in 5% CO2 containing incubator. Following incubation, the serum free medium was removed and the crystals were dissolved by adding DMSO (100 μL) in each well.
Absorbance Detection: The absorbance of the colored solution was measured at 540 nm by Spectra Max Spectrophotometer, Applied Biosystems, CA, USA.
Where, • Test Compound=Novel anthranilic acid derivative • Blank=Hepatocytes treated with Triton X-100 • Control=Untreated normal rat hepatocytes
On the technique in general: Tetrazolium dyes change colour on reduction, which living cells bring about.

[5] abbreviates: compound 24 μM, co-incubated with AGEs 200 μg/mL, 24 hours.
Setting [6] is: compound 33 μM, co-incubated with AGEs 200 μg/mL, 24 hours.
Where [7] appears, read: compound 49 μM, co-incubated with AGEs 200 μg/mL, 24 hours.

T1 sequence (P02768 25-609): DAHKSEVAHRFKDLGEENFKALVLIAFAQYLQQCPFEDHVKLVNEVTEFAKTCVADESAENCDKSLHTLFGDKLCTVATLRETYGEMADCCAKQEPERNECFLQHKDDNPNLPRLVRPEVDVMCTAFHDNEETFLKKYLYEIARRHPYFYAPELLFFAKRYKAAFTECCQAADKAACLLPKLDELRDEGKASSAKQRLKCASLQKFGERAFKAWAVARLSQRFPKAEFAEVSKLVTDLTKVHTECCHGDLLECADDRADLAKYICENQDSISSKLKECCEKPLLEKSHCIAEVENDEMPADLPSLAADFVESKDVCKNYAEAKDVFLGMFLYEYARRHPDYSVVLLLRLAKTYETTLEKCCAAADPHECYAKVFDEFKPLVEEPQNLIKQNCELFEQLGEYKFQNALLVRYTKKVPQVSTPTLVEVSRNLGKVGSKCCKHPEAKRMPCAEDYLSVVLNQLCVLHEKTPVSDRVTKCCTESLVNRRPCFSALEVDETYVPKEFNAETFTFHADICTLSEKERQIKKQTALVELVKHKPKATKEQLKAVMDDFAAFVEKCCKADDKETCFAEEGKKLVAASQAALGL

As to `O=C(O)c1ccccc1Nc1ccc([N+](=O)[O-])cc1[N+](=O)[O-]` [Compound 1, 2-(2,4-Dinitroanilino)benzoic acid], the inhibition at 1000 µM in series [1] (read-out: Antiglycation Activity % Inhibition) was 90%. For the same compound, the IC50 in series [1] (read-out: Antiglycation Activity IC50 ± SEM) came out at 67.2 ± 0.004 µM. The cytotoxicity in series [2] was found to be 1.5%. Besides, the inhibition at 24 µM in series [3] (Rattus norvegicus, Hepatocyte, compound 24 μM, co-incubated with AGEs 200 μg/mL, 24 hours, read-out: Percentage Inhibition of AGE-induced intracellular ROS generation) came out at 93.4%; in series [4] (Rattus norvegicus, Hepatocyte, 24 h, compound 24 μM, co-incubated with AGEs 200 μg/mL, 24 hours, read-out: Percentage Inhibition (growth inhibition of hepatocytes)), 12%. The inhibition at 33 µM worked out at 86.9% in series [3] (Rattus norvegicus, Hepatocyte, compound 33 μM, co-incubated with AGEs 200 μg/mL, 24 hours, read-out: Percentage Inhibition of AGE-induced intracellular ROS generation) and 18.5% in series [4] (Rattus norvegicus, Hepatocyte, 24 h, compound 33 μM, co-incubated with AGEs 200 μg/mL, 24 hours, read-out: Percentage Inhibition (growth inhibition of hepatocytes)). The inhibition at 49 µM in series [3] (Rattus norvegicus, Hepatocyte, compound 49 μM, co-incubated with AGEs 200 μg/mL, 24 hours, read-out: Percentage Inhibition of AGE-induced intracellular ROS generation) came out at 63.2%; in series [4] (Rattus norvegicus, Hepatocyte, 24 h, compound 49 μM, co-incubated with AGEs 200 μg/mL, 24 hours, read-out: Percentage Inhibition (growth inhibition of hepatocytes)), 18.8%. For the same compound, the figures for the “Fluorescence (Average)” value in series [3] (setting [5]), in series [3] (setting [6]) and in series [3] (setting [7]) were 90.6, 101.2 and 139.5, respectively. The “inhibitory influence on the intracellular generation of ROS (in words)” value in series [3] (compound 49 μM, AGE 200 μg/mL) is “moderate inhibitory influence”. The “Percentage Inhibition (growth inhibition of hepatocytes)” value in series [4] (compound 24 μM, co-incubated with AGEs 200 μg/mL, 24 hours, 24 µM) amounted to 12.3%. Besides, the “Absorbance (Average)” value was found to be 1.15 in series [4] (setting [5]), 1.09 in series [4] (setting [6]) and 1.08 in series [4] (setting [7]). The “cytotoxic effect of the AGEs on the hepatocytes in presence of compound (in words)” value in series [4] (compound 33 μM, AGEs 200 μg/mL) is “no cytotoxic effect”. In addition, the “reducing the toxic effects of the AGEs on the hepatocytes proliferation (in words)” value in series [4] (compound 49 μM, AGEs 200 μg/mL) was “safe and effective”.
